The test system of this data set is ncRNAs (SEQ ID NO 28-89). The data set is described as follows: ncRNA arrays of melanocytes, keratinocytes, normal skin, melanoma cell lines and patient samples. The note with it: for ncRNA array expression, patient 2: melanoma patient 2 sample compared to normal skin; for ncRNA array expression, patient 3: melanoma patient 3 sample compared to normal skin; for ncRNA array expression, patient 4: melanoma patient 4 sample compared to normal skin; for ncRNA array expression, patient 5: melanoma patient 5 sample compared to normal skin; for ncRNA array expression, patient 6: melanoma patient 6 sample compared to normal skin; for ncRNA array expression, patient 7: melanoma patient 7 sample compared to normal skin; for ncRNA array expression, patient 8: melanoma patient 8 sample compared to normal skin; for ncRNA array expression, patient 9: melanoma patient 9 sample compared to normal skin; for ncRNA array expression, patient 10: melanoma patient 10 sample compared to normal skin; for ncRNA array expression, patient 19: melanoma patient 19 sample compared to normal skin; for ncRNA array expression, patient 20: melanoma patient 20 sample compared to normal skin; for ncRNA array expression, patient 21: melanoma patient 21 sample compared to normal skin; for ncRNA array expression, patient 22: melanoma patient 22 sample compared to normal skin; for ncRNA array expression, patient 23: melanoma patient 23 sample compared to normal skin; for ncRNA array expression, patient 24: melanoma patient 24 sample compared to normal skin; for ncRNA array expression, patient 25: melanoma patient 25 sample compared to normal skin; for ncRNA array expression, patient 26: melanoma patient 26 sample compared to normal skin; for ncRNA array expression, patient 27: melanoma patient 27 sample compared to normal skin; for ncRNA array expression, patient 28: melanoma patient 28 sample compared to normal skin; for ncRNA array expression, patient 29: melanoma patient 29 sample compared to normal skin; for ncRNA array expression, patient 30: melanoma patient 30 sample compared to normal skin. Also noted: species or system human. Here is the method: An ncRNA array platform that contains over 10,000 putative (>200 nt) ncRNAs including most of the known ncRNAs in mouse and human was conducted to evaluate ncRNAs within melanoma. Lack of coding potential was estimated by an algorithm that scores various characteristics of protein-coding genes, including open reading frame length, synonymous/non-synonymous base substitution rates and similarity to known proteins. These arrays provide the first generation of tools designed to analyze the dynamic expression of a large subset of ncRNAs in human and mouse and to identify candidate genes for more detailed functional analysis. In addition to the ncRNA content, probes targeting mRNA content from RefSeq are also included, allowing discovery of coordinated expression with associated protein-coding genes. The result of these assays is a list of ncRNA genes (i.e. SEQ ID NO 28-89) and maps of their sequence boundaries. We have profiled total RNA isolated from melanocytes, keratinocytes, normal human skin, melanoma cell lines and melanoma patient samples to identify differentially expressed ncRNAs in cell lines and tissues. ncRNAs expression in all tested samples were compared to either melanocytes or normal skin. We have identified a group of ncRNAs that are specific for (a) melanocytes (b) Keratinocytes (c) Melanoma cell lines (d) Melanoma patients. […] Probe DNA sequences for this array include: AF086032 (SEQ ID NO 107) […] BC071821 (SEQ ID NO 108) […] C AK130193 (SEQ ID NO 109) […] AL109719 (SEQ ID NO 110) […] AF085888 (SEQ ID NO 111) […] T BC033879 (SEQ ID NO 112) […] AA AK024556 (SEQ ID NO 113) […] Probe nomenclature is standard genebank IDs given by NCBI and other organizations.
Keratinocytes specific signatures were subtracted and resultant ncRNAs were validated by qRT-PCR and Northern blots. Results point out the presence of a group of melanoma specific ncRNAs (i.e. SEQ ID NO 28-89).

For the substance “SEQ ID NO 34 (TTTTCTCTGCTTATTACCCTCCCTGTTTCCTCCTGGGCTGCCAACAACATATTATATTAC; listed as DNA, chemistry not given here; listed as Homo sapiens)”, the “ncRNA array expression, patient 2” value stood at 2.375; the “ncRNA array expression, patient 3” value came out at 2.833; the “ncRNA array expression, patient 4” value is reported as 2.701; the “ncRNA array expression, patient 5” value is listed as 2.722. Further, the “ncRNA array expression, patient 6” value amounted to 2.606; the “ncRNA array expression, patient 7” value is recorded as 3.005; the “ncRNA array expression, patient 8” value was found to be 2.354; the “ncRNA array expression, patient 9” value is recorded as 1.958. For the same substance, the “ncRNA array expression, patient 10” value was −1.787; the “ncRNA array expression, patient 19” value amounted to 2.243; the “ncRNA array expression, patient 20” value is on record as 3.044; the “ncRNA array expression, patient 21” value amounted to 2.382. Moreover, the “ncRNA array expression, patient 22” value stood at 2.727; the “ncRNA array expression, patient 23” value was 2.643; the “ncRNA array expression, patient 24” value is listed as 1.817; the “ncRNA array expression, patient 25” value was found to be 2.013. Moreover, the “ncRNA array expression, patient 26” value was found to be 1.687; the “ncRNA array expression, patient 27” value was found to be 2.945; the “ncRNA array expression, patient 28” value was 2.485; the “ncRNA array expression, patient 29” value turned out to be 2.129. Further, the “ncRNA array expression, patient 30” value is listed as −0.1242.

Turning to “SEQ ID NO 35 (GTTTCCATTGAAGAATATTACGCTCGGGGACAAGCCAGGTGCACGACCAAAAATTTAAAA; DNA, backbone and methylation of C not given here; listed as Homo sapiens)”, the “ncRNA array expression, patient 2” value came out at 1.513; the “ncRNA array expression, patient 3” value came out at 3.848; the “ncRNA array expression, patient 4” value amounted to 3.278; the “ncRNA array expression, patient 5” value was determined as 2.521. Moreover, the “ncRNA array expression, patient 6” value turned out to be 2.07; the “ncRNA array expression, patient 7” value came out at 3.025; the “ncRNA array expression, patient 8” value worked out at 2.14; the “ncRNA array expression, patient 9” value was −0.1931. For the same substance, the “ncRNA array expression, patient 10” value turned out to be 3.606; the “ncRNA array expression, patient 19” value turned out to be 0.9237; the “ncRNA array expression, patient 20” value was determined as 2.507; the “ncRNA array expression, patient 21” value is given as 2.618. Moreover, the “ncRNA array expression, patient 22” value came out at 0.8167; the “ncRNA array expression, patient 23” value was 2.729; the “ncRNA array expression, patient 24” value was −2.783; the “ncRNA array expression, patient 25” value worked out at 1.774. Further, the “ncRNA array expression, patient 26” value was 3.301; the “ncRNA array expression, patient 27” value was 3.86; the “ncRNA array expression, patient 28” value came to 4.108; the “ncRNA array expression, patient 29” value came out at 3.127. The “ncRNA array expression, patient 30” value is −0.8323.

As for “SEQ ID NO 36 (TATTTGTGACTAACTGTATAACAGGTTATTTTAGTTTCTGTTCTGTGGGAAGTGTAAAGC; listed as DNA, chemistry not given here; listed as Homo sapiens)”, the “ncRNA array expression, patient 2” value amounted to 3.977; the “ncRNA array expression, patient 3” value came to 3.577; the “ncRNA array expression, patient 4” value was 4.181; the “ncRNA array expression, patient 5” value amounted to 4.05. The “ncRNA array expression, patient 6” value is given as 3.52; the “ncRNA array expression, patient 7” value was determined as 4.601; the “ncRNA array expression, patient 8” value is 4.36; the “ncRNA array expression, patient 9” value is listed as 3.565. Further, the “ncRNA array expression, patient 10” value stood at 2.818; the “ncRNA array expression, patient 19” value was 3.798; the “ncRNA array expression, patient 20” value worked out at 4.669; the “ncRNA array expression, patient 21” value is reported as 3.909. The “ncRNA array expression, patient 22” value amounted to 3.164; the “ncRNA array expression, patient 23” value is on record as 2.96; the “ncRNA array expression, patient 24” value came out at 3.815; the “ncRNA array expression, patient 25” value was found to be 5.084. The “ncRNA array expression, patient 26” value stood at 4.401; the “ncRNA array expression, patient 27” value was 4.909; the “ncRNA array expression, patient 28” value was found to be 4.878; the “ncRNA array expression, patient 29” value was determined as 4.381. For the same substance, the “ncRNA array expression, patient 30” value is −1.698.

As for “SEQ ID NO 37 (ACGCACTGGGCGTTGAAGCAGTGCTTTCTGGATTAAATACGAAATACTGATGTCACAAGC; DNA, backbone and methylation of C not given here; listed as Homo sapiens)”, the “ncRNA array expression, patient 2” value came to 1.589; the “ncRNA array expression, patient 3” value turned out to be 0.3993; the “ncRNA array expression, patient 4” value was 0.7773; the “ncRNA array expression, patient 5” value was 2.425. For the same substance, the “ncRNA array expression, patient 6” value is on record as −0.3494; the “ncRNA array expression, patient 7” value is given as 1.933; the “ncRNA array expression, patient 8” value came to 1.302; the “ncRNA array expression, patient 9” value worked out at 2.619. For the same substance, the “ncRNA array expression, patient 10” value was found to be 3.899; the “ncRNA array expression, patient 19” value was 4.51; the “ncRNA array expression, patient 20” value stood at 0.9938; the “ncRNA array expression, patient 21” value came out at 2.575. Further, the “ncRNA array expression, patient 22” value was 0.0988; the “ncRNA array expression, patient 23” value is given as 1.771; the “ncRNA array expression, patient 24” value is listed as 4.312; the “ncRNA array expression, patient 25” value was found to be 3.471. Besides, the “ncRNA array expression, patient 26” value was 2.31; the “ncRNA array expression, patient 27” value stood at 0.5554; the “ncRNA array expression, patient 28” value came to 1.732; the “ncRNA array expression, patient 29” value came to 2.461. Moreover, the “ncRNA array expression, patient 30” value is recorded as −1.17.

With “SEQ ID NO 38 (GTAAACAAGGTCTCACAAAAACAGCTGACCACACCATAAAATCACTGAGACCGAGCCTGC; listed as DNA, chemistry not given here; listed as Homo sapiens)”, the “ncRNA array expression, patient 2” value was −1.1813; the “ncRNA array expression, patient 3” value is −1.02; the “ncRNA array expression, patient 4” value was −0.9275; the “ncRNA array expression, patient 5” value was −1.288. For the same substance, the “ncRNA array expression, patient 6” value is −1.615; the “ncRNA array expression, patient 7” value is listed as −1.64; the “ncRNA array expression, patient 8” value is reported as −1.244; the “ncRNA array expression, patient 9” value is recorded as −1.183. The “ncRNA array expression, patient 10” value is given as −0.784; the “ncRNA array expression, patient 19” value is reported as −0.7729; the “ncRNA array expression, patient 20” value was −0.9285; the “ncRNA array expression, patient 21” value is listed as −1.068. The “ncRNA array expression, patient 22” value is on record as −0.7593; the “ncRNA array expression, patient 23” value is −1.569; the “ncRNA array expression, patient 24” value is −1.078; the “ncRNA array expression, patient 25” value is on record as −1.365. Further, the “ncRNA array expression, patient 26” value is listed as −1.368; the “ncRNA array expression, patient 27” value is −1.317; the “ncRNA array expression, patient 28” value is reported as −1.181; the “ncRNA array expression, patient 29” value was −1.249. Also, the “ncRNA array expression, patient 30” value was 0.333.

For “SEQ ID NO 39 (TGATCCTGTAAATCATGTTTTTGTTTATTCCCCAACACTAACCTCACTCCTTTACTATTC; listed as DNA, chemistry not given here; listed as Homo sapiens)”, the “ncRNA array expression, patient 2” value was −1.04; the “ncRNA array expression, patient 3” value was −0.7852; the “ncRNA array expression, patient 4” value is listed as −1.149; the “ncRNA array expression, patient 5” value was −1.017. The “ncRNA array expression, patient 6” value is recorded as −0.9404; the “ncRNA array expression, patient 7” value was −1.086; the “ncRNA array expression, patient 8” value was −0.9282; the “ncRNA array expression, patient 9” value was −1.306. The “ncRNA array expression, patient 10” value is listed as −1.237; the “ncRNA array expression, patient 19” value was −0.6006; the “ncRNA array expression, patient 20” value is listed as −1.263; the “ncRNA array expression, patient 21” value is −1.232. For the same substance, the “ncRNA array expression, patient 22” value was −0.301; the “ncRNA array expression, patient 23” value was −0.164; the “ncRNA array expression, patient 24” value is recorded as −1.204; the “ncRNA array expression, patient 25” value is recorded as −1.66. Besides, the “ncRNA array expression, patient 26” value is on record as −1.776; the “ncRNA array expression, patient 27” value is −1.287; the “ncRNA array expression, patient 28” value is recorded as −1.448; the “ncRNA array expression, patient 29” value is on record as −1.374. Further, the “ncRNA array expression, patient 30” value turned out to be 0.02356.
